Three molecules from patent publication US9023850B2, “Nematocidal sulfonamides” (E I du Pont de Nemours and Company, priority 2010, dated 2015) can be followed below.

For the data set, the system named is cucumber seedlings. Put plainly: Test A: phytotoxicity to the cucumber seedlings of the test units. It is filed as in vivo. The note with it: 250 ppm active ingredient applied to soil, 7 days. On the procedure:
Control of the southern root-knot nematode (Meloidogyne incognita) through contact and/or systemic means was evaluated in test units consisting of small open containers filled with a sandy soil mixture and cucumber seedlings. Test compounds were formulated using a solution containing 50% acetone and 50% water. Test compounds were applied directly to the soil of the test units at a concentration of 250 ppm active ingredient. Each test was replicated 3 times. After treatment, the test units were allowed to dry for 1 hour, after which time about 250 second-stage juvenile (J2) larvae were pipetted into the soil. The test units were held at 27° C. and watered as needed for 7 days. Nematocidal efficacy was determined by the amount of root gall formation observed when compared to an untreated control. No gall formation was indicative of 100% nematode control. Gall formation equivalent to that found in the untreated control was indicative of 0% control. No nematode control rating was given to compounds showing significant phytotoxicity.

Consider `COc1ccc(Cl)c(S(=O)(=O)NC(=O)c2cn3cc(C(F)(F)F)ncc3n2)c1` [Compound 1, N-[(2-chloro-5-methoxyphenyl)sulfonyl]-6-(trifluoromethyl)imidazo[1,2-a]pyrazine-2-carboxamide], for which the phytotoxicity result is on record as “no significant phytotoxicity”.

As to `O=C(NS(=O)(=O)c1cc(C(F)(F)F)ccc1Cl)c1cn2cc(Br)cnc2n1` [Compound 4, 6-bromo-N-[[2-chloro-5-(trifluoromethyl)phenyl]sulfonyl]imidazo[1,2-a]pyrimidine-2-carboxamide], the phytotoxicity entry is “no significant phytotoxicity”.

On to `O=C(NS(=O)(=O)c1cc(C(F)(F)F)ccc1Cl)c1cn2cc(C(F)(F)F)cnc2n1` [Compound 6, N-[[2-chloro-5-(trifluoromethyl)phenyl]sulfonyl]-6-(trifluoromethyl)imidazo[1,2-a]pyrimidine-2-carboxamide], for which the phytotoxicity result was “no significant phytotoxicity”.
